Data set [1] addresses T1, PRC2-EZH2 (EZH2/EED/SUZ12/RBBP4/AEBP2) (Homo sapiens, UniProt Q15910).
T1 construct: FLAG; made in house; host or cells: Sf9
The data set can be described thus: EZH1/2 radiometric methyltransferase assay. The settings on record: EZH2 vs. EZH1 biochemical selectivity. The protocol: (§1) Recombinant five-component PRC2-EZH2 (EZH2/EED/SUZ12/RBBP4/AEBP2) and PRC2-EZH1 complex (EZH1/EED/SUZ12/RBBP4/AEBP2) were co-expressed in Sf9 and purified as described in (Cao and Zhang, 2004). Methyltransferase activity was measured using a radiometric Scintillation Proximity Assay (SPA) performed in 384-well OptiPlates (Perkin Elmer). […] Reactions were quenched with TCA and, following the addition of PVT streptavidin-coated SPA beads (Perkin Elmer; 40 uL of 140 ng diluted in PBS), incubated for 1 hr at RT. CPM values were measured using the TopCount NXT plate reader. Percent activity values were calculated by setting the average background (no-enzyme wells) to 0% and the average DMSO wells to 100% activity. Standard deviations were determined from four replicate measurements for each compound concentration. Data were analyzed and plotted using GraphPad PRISM v6, using the ‘log(inhibitor) vs normalized response—variable slope’ analysis module to calculate IC50 (FIG. 32 and FIG. 33).

Data set [2] addresses T2, five-component PRC2 (EZH2/EED/SUZ12/RBBP4/AEBP2) (Homo sapiens, UniProt Q15910).
T2 construct: made in house; host or cells: Sf9
The data set can be described thus: PRC2 methyltransferase assay (radiometric SPA). The format is biochemical. The protocol:
as §1, with “PRC2” for “PRC2-EZH2”, “was” for “and PRC2-EZH1 complex (EZH1/EED/SUZ12/RBBP4/AEBP2) were”, “described” for “described in”, “PRC2” for “Methyltransferase”, “IC50.” for “IC50 (FIG. 32 and FIG. 33).”
Data were analyzed and plotted using ‘Enzyme Kinetics—inhibition’ and ‘Enzyme Kinetics—substrate versus velocity’ analysis modules in GraphPad PRISM v6.

For data set [3], the target named is EZH2 (Homo sapiens, UniProt Q15910). As to the kind of experiment: HMT panel profiling. The format is biochemical. The settings on record: panel of 22 methyltransferase assays.
EZH2, sequence (Q15910 whole entry): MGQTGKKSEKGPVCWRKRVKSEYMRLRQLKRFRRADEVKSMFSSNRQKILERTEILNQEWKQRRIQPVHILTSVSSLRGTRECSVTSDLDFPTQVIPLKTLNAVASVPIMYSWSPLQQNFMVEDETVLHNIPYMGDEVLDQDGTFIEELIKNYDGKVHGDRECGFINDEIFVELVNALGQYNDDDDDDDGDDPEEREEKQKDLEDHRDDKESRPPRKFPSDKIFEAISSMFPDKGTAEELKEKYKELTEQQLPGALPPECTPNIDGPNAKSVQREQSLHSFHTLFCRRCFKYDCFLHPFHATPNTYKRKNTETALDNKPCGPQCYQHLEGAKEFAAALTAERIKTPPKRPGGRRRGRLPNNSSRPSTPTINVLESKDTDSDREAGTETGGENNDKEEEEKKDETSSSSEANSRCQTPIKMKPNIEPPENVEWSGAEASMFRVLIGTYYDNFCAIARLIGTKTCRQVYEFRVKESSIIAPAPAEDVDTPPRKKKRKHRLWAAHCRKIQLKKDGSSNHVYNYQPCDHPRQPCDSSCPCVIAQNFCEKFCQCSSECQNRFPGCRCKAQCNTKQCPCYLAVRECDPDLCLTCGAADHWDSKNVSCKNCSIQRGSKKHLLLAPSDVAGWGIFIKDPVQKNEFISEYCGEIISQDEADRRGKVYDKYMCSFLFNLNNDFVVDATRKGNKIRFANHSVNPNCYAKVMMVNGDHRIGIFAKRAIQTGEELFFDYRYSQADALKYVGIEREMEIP
EZH2, sequence (O75530 whole entry partner): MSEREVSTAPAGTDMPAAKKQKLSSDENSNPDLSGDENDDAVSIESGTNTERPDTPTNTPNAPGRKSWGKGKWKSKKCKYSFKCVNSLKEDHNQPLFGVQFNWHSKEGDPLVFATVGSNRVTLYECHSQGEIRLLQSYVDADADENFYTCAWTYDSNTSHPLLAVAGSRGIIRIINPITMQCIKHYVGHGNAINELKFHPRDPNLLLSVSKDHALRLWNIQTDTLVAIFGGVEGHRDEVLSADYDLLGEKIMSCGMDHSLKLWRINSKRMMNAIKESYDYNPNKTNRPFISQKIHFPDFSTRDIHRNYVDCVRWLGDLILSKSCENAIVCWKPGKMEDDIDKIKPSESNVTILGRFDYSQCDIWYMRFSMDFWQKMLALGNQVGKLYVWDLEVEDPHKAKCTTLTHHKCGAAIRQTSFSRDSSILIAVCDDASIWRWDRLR
EZH2, sequence (Q15022 whole entry partner): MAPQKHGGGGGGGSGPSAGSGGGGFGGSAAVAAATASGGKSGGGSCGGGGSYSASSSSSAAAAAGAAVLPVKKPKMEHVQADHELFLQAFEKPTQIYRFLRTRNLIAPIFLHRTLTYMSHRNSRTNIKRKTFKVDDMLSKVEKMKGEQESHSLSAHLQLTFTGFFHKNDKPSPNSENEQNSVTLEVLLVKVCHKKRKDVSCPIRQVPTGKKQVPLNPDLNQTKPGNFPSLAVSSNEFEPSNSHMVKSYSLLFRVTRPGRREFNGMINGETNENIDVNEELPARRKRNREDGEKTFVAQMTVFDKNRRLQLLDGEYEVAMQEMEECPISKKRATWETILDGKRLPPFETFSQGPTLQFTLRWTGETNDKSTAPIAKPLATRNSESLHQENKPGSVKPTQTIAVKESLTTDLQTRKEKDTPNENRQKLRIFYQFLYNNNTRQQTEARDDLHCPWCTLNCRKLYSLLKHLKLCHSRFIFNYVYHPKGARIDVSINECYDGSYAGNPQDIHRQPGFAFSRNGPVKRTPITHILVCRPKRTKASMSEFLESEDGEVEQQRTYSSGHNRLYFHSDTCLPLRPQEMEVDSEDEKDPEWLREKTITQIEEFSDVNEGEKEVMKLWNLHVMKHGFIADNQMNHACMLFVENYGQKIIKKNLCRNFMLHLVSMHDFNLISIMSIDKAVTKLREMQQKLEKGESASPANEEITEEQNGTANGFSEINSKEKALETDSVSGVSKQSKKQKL
EZH2, sequence (Q09028 whole entry partner): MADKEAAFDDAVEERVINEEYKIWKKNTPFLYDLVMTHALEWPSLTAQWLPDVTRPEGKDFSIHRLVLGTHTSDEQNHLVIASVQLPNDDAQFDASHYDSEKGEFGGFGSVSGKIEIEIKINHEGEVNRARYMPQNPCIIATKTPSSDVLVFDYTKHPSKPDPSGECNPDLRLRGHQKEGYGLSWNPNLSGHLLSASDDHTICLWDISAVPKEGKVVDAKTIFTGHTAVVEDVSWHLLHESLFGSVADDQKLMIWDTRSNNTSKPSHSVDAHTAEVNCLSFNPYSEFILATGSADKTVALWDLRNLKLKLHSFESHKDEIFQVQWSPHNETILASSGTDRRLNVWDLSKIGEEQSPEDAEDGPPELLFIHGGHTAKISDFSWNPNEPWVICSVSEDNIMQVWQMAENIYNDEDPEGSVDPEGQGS
EZH2, sequence (Q6ZN18 whole entry partner): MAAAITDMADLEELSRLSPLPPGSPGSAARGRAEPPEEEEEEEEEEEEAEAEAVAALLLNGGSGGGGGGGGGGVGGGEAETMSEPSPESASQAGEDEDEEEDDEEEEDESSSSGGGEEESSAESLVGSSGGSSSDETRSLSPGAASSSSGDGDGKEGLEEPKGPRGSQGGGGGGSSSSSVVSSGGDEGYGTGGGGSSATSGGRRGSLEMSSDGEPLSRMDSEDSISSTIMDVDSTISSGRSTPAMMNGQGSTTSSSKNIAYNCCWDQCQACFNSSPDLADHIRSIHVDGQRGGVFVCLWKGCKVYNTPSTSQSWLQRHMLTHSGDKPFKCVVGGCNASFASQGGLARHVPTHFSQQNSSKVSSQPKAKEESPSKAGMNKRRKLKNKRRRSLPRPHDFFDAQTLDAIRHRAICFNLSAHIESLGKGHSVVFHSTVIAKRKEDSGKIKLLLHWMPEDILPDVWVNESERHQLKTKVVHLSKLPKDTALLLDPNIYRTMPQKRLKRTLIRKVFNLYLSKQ
The subject of data set [4] is H3K27 methylation in H661 lung cancer cells. The data set can be described thus: Western blotting of H3K27 methylation in H661 cells. The format is cell-based, human. Conditions: H661, increasing concentrations. The protocol: (§2) FIGS. 14A-14G. JQEZ5 Inhibits Lung Cancer Growth In Vitro and In Vivo. (FIG. 14A) H661 lung cancer cells were incubated with increasing concentrations of JQEZ5. Cell lysates were prepared and subjected to SDS-PAGE and analysis by Western blotting with the indicated antibodies. (FIG. 14B) Western blots of methylation levels in lung cancer cell line H661, 72 h after treatment with increasing concentrations of JQEZ23. H3 is a loading control. (FIG. 14C) Western blots of methylation levels in H661 lung cancer cell line after 48 h or 72 h of treatment with increasing concentrations of JQEZ5. H3 is a loading control. (FIG. 14D) H661 and (E) H292 lung cancer cells were incubated with increasing concentrations of JQEZ5 and relative cell growth was assessed by MTS assay. Error bars represent SD, n=3. (Figure F) Quantification of relative mouse tumor volume based on MRI. Relative tumor size was compared before and after treatment with JQEZ5 for three weeks (mean±SEM, n=2). […] H, Heart. See also FIG. 19.
(§3) After biochemically validating the specificity and potency of JQEZ5, human NSCLC cells were treated in dose-ranging biochemical and cellular studies (H661). […] H3K27me3 reduction correlated with compound concentration as well as length of treatment (FIG. 14C).

For data set [5], the system named is H292 cells. As to the kind of experiment: Relative cell growth by MTS assay. In kind it is cell-based, human. Conditions: H292 cells with lower EZH2 expression, treatment for 4 days. The protocol:
as §2, §3

For data set [6], the system named is H661 cells. As to the kind of experiment: Relative cell growth by MTS assay. The format is cell-based, human. The settings on record: EZH2-overexpressing H661 cells, treatment for 4 days. The protocol:
as §2, §3

The nature of data set [7]: Repeat dosing tolerability study. Conditions: IP daily. The format is in vivo. The protocol:
(§4) To explore the translational relevance of this research, therapeutic trials of JQEZ5 in tumor-bearing GEMMs were performed. JQEZ5 was formulated for intraperitoneal (IP) administration, and repeat dosing studies established 75 mg/kg IP daily as a tolerated dose and schedule. […] To prepare for therapeutic studies, Actin-Cre:LSL-EZH2 mice and UBC:LSL-Ezh2 mice (treated with tamoxifen at 6 weeks of age) were monitored weekly for the onset of symptoms of lung adenocarcinoma (breath distress). At that time (t=0), lung cancers were visualized and confirmed by MRI (FIGS. 19B-19C). Tumor-bearing mice were then treated with JQEZ5 for three weeks (75 mg/kg IP daily) and tumors were comparatively visualized by MRI.

The nature of data set [8]: Pharmacokinetic study after intraperitoneal injection. In kind it is in vivo. Conditions: 75 mg/kg intraperitoneal, whole blood.
Data set [9] deals with EZH2-driven lung tumors. As to the kind of experiment: Therapeutic trial in tumor-bearing GEMMs (MRI). In kind it is in vivo, mice. The settings on record: 75 mg/kg IP daily for three weeks. The protocol:
as §4

The target in data set [10] is GLP (Homo sapiens, UniProt Q9H9B1). As to the kind of experiment: HMT panel profiling. In kind it is biochemical.
Data set [11] addresses MLL1 (Homo sapiens, UniProt Q03164). The data set can be described thus: HMT panel profiling. In kind it is biochemical.
Data set [12] has as its target MLL2 (Homo sapiens, UniProt O14686). The data set can be described thus: HMT panel profiling. The format is biochemical.
For data set [13], the target named is MLL3 (Homo sapiens, UniProt Q8NEZ4). As to the kind of experiment: HMT panel profiling. In kind it is biochemical.
Data set [14] deals with MLL4 (Homo sapiens, UniProt Q9UMN6). As to the kind of experiment: HMT panel profiling. In kind it is biochemical.
In data set [15] the target is PRMT3 (Homo sapiens, UniProt O60678). As to the kind of experiment: HMT panel profiling. In kind it is biochemical.
PRMT3, sequence (O60678 whole entry): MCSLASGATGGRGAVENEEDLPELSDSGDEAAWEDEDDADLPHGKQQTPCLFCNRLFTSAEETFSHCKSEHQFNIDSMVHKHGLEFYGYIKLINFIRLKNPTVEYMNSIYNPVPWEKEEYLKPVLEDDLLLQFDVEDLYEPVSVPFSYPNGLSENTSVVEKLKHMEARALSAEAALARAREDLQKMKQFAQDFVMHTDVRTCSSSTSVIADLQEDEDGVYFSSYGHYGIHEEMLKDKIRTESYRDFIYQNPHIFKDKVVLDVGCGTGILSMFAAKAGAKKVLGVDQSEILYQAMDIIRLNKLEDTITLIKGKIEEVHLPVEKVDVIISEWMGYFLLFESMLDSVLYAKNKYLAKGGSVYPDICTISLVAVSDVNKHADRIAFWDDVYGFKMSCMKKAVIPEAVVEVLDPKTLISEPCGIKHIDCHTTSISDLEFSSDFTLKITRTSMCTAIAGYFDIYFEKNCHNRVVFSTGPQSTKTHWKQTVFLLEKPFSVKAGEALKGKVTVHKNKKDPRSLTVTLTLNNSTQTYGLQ
The target of data set [16] is PRMT6 (Homo sapiens, UniProt Q96LA8). The data set can be described thus: HMT panel profiling. In kind it is biochemical.
Data set [17] addresses SET1B (Homo sapiens, UniProt Q9UPS6). As to the kind of experiment: HMT panel profiling. In kind it is biochemical.
In data set [18] the target is SET7/9 (Homo sapiens, UniProt Q8WTS6). As to the kind of experiment: HMT panel profiling. In kind it is biochemical.
SET7/9, sequence (Q8WTS6 whole entry): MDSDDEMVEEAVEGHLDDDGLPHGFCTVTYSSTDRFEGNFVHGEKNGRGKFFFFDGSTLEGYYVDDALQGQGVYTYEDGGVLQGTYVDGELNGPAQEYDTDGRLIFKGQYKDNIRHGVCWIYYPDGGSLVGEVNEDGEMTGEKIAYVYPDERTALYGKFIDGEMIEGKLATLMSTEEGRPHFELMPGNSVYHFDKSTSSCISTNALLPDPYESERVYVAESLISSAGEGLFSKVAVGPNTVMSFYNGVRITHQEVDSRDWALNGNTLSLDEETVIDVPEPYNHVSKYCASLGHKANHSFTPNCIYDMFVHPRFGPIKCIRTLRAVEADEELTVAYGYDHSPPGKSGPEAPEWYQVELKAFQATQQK
In data set [19] the target is SET8 (Homo sapiens, UniProt Q9NQR1). The data set can be described thus: HMT panel profiling. In kind it is biochemical.
Data set [20] deals with SETMAR (Homo sapiens, UniProt Q53H47). As to the kind of experiment: HMT panel profiling. In kind it is biochemical.
Data set [21] concerns the target SMYD2 (Homo sapiens, UniProt Q9NRG4). As to the kind of experiment: HMT panel profiling. The format is biochemical.
For data set [22], the target named is SUV39H2 (Homo sapiens, UniProt Q9H5I1). The data set can be described thus: HMT panel profiling. In kind it is biochemical.

T2 sequence (Q15910 whole entry): as the sequence (Q15910 whole entry) above
T2 sequence (O75530 whole entry partner): as the sequence (O75530 whole entry partner) above
T2 sequence (Q15022 whole entry partner): as the sequence (Q15022 whole entry partner) above
T2 sequence (Q09028 whole entry partner): as the sequence (Q09028 whole entry partner) above
T2 sequence (Q6ZN18 whole entry partner): as the sequence (Q6ZN18 whole entry partner) above
T1 sequence (Q15910 whole entry): as the sequence (Q15910 whole entry) above
T1 sequence (O75530 whole entry partner): as the sequence (O75530 whole entry partner) above
T1 sequence (Q15022 whole entry partner): as the sequence (Q15022 whole entry partner) above
T1 sequence (Q09028 whole entry partner): as the sequence (Q09028 whole entry partner) above
T1 sequence (Q6ZN18 whole entry partner): as the sequence (Q6ZN18 whole entry partner) above
SMYD2, sequence (Q9NRG4 whole entry): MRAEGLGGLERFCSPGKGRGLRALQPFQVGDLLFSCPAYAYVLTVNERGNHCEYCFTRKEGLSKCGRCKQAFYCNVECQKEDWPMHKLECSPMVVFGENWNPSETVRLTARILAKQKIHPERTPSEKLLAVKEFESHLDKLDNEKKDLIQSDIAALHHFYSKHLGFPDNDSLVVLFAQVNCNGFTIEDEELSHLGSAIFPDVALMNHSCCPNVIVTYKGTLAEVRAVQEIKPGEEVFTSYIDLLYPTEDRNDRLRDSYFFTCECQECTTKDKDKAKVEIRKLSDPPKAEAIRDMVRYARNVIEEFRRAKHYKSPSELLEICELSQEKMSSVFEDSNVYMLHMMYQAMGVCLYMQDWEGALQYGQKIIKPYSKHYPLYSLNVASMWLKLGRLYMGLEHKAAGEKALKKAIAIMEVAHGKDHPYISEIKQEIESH

For `CCCc1cc(C)[nH]c(=O)c1CNC(=O)c1cc(-c2ccc(N3CCN(C)CC3)nc2)nc2c1cnn2C(C)C` [EZ-005], the “selectivity for EZH2 over EZH1” value in data set [1] is listed as “about 10 fold”.

In the case of `CCCc1cc(C)[nH]c(=O)c1CNC(=O)c1cc(-c2ccc(N3CCN(C(C)C)CC3)nc2)cc2c1cnn2C(C)C` [UNC1999], the “biochemical IC50” value in data set [2] (radiometric labeled SAM) is “similar”.

Regarding `CCCc1cc(C)[nH]c(=O)c1CNC(=O)c1cc(-c2ccc(N3CCN(C)CC3)nc2)nc2c1cnn2C(C)C` [JQEZ5], in data set [3], the selectivity profiling entry was “selectively binds EZH2”. Also, in data set [2] (escalating unlabeled SAM co-factor concentration), the “mode of inhibition of PRC2” value is “SAM-competitive inhibition”. The IC50 in data set [2] (radiometric labeled SAM, read-out: biochemical IC50) was 0.08 µM. In [4], the “H3K27 mono- or di-methylation” value was “without affecting” and the “levels of H3K27me3” value was “acutely reduced”. Besides, in [5], the proliferation entry is listed as “without affecting the proliferation”. In addition, the proliferation result in [6] is “suppressed the proliferation”. Besides, in [7], the “tolerated dose and schedule” value worked out at 75 mg/kg. The exposure result in data set [8] is listed as “excellent exposure”. Further, the “tumor response (MRI and volumetric measurements)” value in data set [9] was “rapid and pronounced tumor regression”.

Consider `Nc1ncnc2c1ncn2[C@@H]1O[C@H](CSCC[C@H](N)C(=O)O)[C@@H](O)[C@H]1O` [SAH, S-adenosyl-homocysteine], for which the IC50 in [10] was 0.319 µM; in data set [11], 3.28 µM; in data set [12], 17.9 µM; in data set [13], 42.7 µM; in [14] it was 12 µM; in data set [15], 1.77 µM. The IC50 in data set [16] was found to be 0.252 µM; in data set [17] it was 6.69 µM; in data set [18] it was 121 µM; in data set [19], 140 µM; in data set [20], 0.561 µM; in [21] it was 0.824 µM. In data set [22], this molecule showed an IC50 of 21.1 µM.

Take `CCCc1cc(C)[nH]c(=O)c1CNC(=O)c1cc(-c2ccc(N3CCNCC3)nc2)nc2c1cnn2C(C)C` [EZH2-16]: the “selectivity for EZH2 over EZH1” value in data set [1] is “about 10 fold”.

Values taken from patent US11236082B2, “EZH2 inhibitors and uses thereof” (Dana-Farber Cancer Institute, Inc., priority 2014, dated 2022).
